The text below walks through data of ChEMBL document CHEMBL1137861, “Novel pyrazinone inhibitors of mast cell tryptase: synthesis and SAR evaluation” (Bioorg Med Chem Lett, 2004).

One may read the inhibition as the relative decrease from the control value, in per cent.

One experiment deals with T1, Tryptase beta-1 (Homo sapiens, UniProt Q15661). Put plainly: Inhibitory activity against human Tryptase beta 2 expressed in yeast cells at 5 uM. The experiment is classed as cell-based.
T1 sequence (Q15661 31-275 limits assumed): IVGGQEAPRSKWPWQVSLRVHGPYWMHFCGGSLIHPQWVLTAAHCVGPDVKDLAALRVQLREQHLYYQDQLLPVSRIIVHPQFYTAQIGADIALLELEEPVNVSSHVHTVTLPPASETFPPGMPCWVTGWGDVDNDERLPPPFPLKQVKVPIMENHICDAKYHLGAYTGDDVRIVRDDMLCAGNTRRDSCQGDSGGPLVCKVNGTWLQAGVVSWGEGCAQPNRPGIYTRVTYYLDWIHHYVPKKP
With `Cc1c(Cl)nc(N[C@H]2CC[C@H](N)CC2)c(=O)n1CC(=O)Nc1ccc(C(N)=O)cc1`, the inhibition was determined as 31%. With `Cc1c(Cl)nc(N[C@H]2CC[C@H](N)CC2)c(=O)n1CC(=O)NCCc1c[nH]cn1`, the inhibition was 8%. Same read-out and setting: in the case of `Cc1c(Cl)nc(N[C@H]2CC[C@H](N)CC2)c(=O)n1CC(=O)Nc1ccc(CN)cc1` it was 16%; in that of `Cc1c(Cl)nc(N[C@H]2CC[C@H](N)CC2)c(=O)n1CC(=O)Nc1cccc(C(N)=O)c1`, 18%. Still for that read-out and setting: under `Cc1c(Cl)nc(N[C@H]2CC[C@H](N)CC2)c(=O)n1CC(=O)NC1CCC(N)CC1` (some centres undefined) stands 2%; under `Cc1c(Cl)nc(N[C@H]2CC[C@H](N)CC2)c(=O)n1CC(=O)Nc1cccc(N)c1`, 7%. Same read-out and setting: under `Cc1c(Cl)nc(N[C@H]2CC[C@H](N)CC2)c(=O)n1CC(=O)Nc1ccc(N)cc1` stands 29%.

The next experiment deals with T1, Tryptase beta-1. Put plainly: Inhibitory activity against human Tryptase beta 2 expressed in yeast cells at 5 uM; not active. The experiment is classed as cell-based.
In turn, `Cc1c(Cl)nc(Nc2ccc(F)cc2)c(=O)n1CC(=O)Nc1cccc(CN)c1` showed an inhibition of 24%. Same read-out and setting: under `Cc1c(Cl)nc(Nc2cccc(Cl)c2)c(=O)n1CC(=O)Nc1cccc(CN)c1` stands 11%.
